Test results published in US12336981B2, “Compounds and compositions for the inhibition of NAMPT” (Valo Health, Inc., priority 2010, dated 2025).
Like-named read-outs stand apart in the source and are kept apart here.

Assays:
NAMPT = biological target: T1, NAMPT (Homo sapiens, UniProt P43490); assay: Biochemical inhibition assay: NAMPT enzymatic reaction, NMN quantified by mass spectrometry; conditions: NAMPT enzymatic reaction; read-out: Biochem IC50
T1 construct: His tag; host or cells: E. coli
Outline: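 Inhibition of E. coli-expressed His-tagged human NAMPT, measured as NMN formation by mass spectrometry after a 30 min room-temperature reaction containing 1 μM NAM, 100 μM PRPP and 2.5 mM ATP.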

A2780 cells = assay: In-vitro cell proliferation assay (SRB), A2780 cells; type: cell-based; conditions: A2780 cells, 72 hours, SRB, read-out: A2780 IC50
Outline: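 Proliferation is assessed by sulforhodamine B staining following a 72-hour incubation with compound dilutions containing 0.1% DMSO.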

T1 sequence (P43490 whole entry): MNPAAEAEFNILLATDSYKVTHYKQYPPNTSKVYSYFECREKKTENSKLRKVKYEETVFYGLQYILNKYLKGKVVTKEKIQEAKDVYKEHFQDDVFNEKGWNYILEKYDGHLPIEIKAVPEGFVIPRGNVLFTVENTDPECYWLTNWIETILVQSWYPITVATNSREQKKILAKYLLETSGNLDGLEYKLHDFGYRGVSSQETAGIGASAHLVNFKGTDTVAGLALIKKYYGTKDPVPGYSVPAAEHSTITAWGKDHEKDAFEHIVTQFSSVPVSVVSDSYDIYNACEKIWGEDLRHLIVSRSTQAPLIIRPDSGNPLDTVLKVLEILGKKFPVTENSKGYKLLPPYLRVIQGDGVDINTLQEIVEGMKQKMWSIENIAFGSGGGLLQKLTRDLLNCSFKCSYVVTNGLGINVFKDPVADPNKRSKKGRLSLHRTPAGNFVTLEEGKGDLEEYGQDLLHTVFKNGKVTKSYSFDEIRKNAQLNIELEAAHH

Row | Structure (SMILES) | IC50 (NAMPT) | IC50 (A2780 cells; Homo sapiens, A2780, 72 h) | IC50 (A2780 cells)
1 | O=C(NCc1ccc(S(=O)(=O)c2c(F)cccc2Cl)cc1)c1cc2cnccc2[nH]1 | 114 nM | 37.1 nM | 
2 | O=C(NCc1ccc(S(=O)(=O)c2c(F)cccc2Cl)cc1)c1ccc2nccn2c1 | 172 nM | 76.6 nM | 
3 | COc1cccc(Cl)c1S(=O)(=O)c1ccc(CNC(=O)c2cc3ccncc3o2)cc1 | 16.7 nM | 21.4 nM | 
4 | COc1cccc(Cl)c1S(=O)(=O)c1ccc(CNC(=O)c2cc3ccncc3s2)cc1 | 2.7 nM | 2.9 nM | 
5 | O=C(NCc1ccc(S(=O)(=O)c2ccccc2Cl)cc1)c1cc2ccncc2s1 | 2.4 nM | 6.6 nM | 
6 | N#Cc1ccccc1S(=O)(=O)c1ccc(CNC(=O)c2ccc3nccn3c2)cc1 | 15.6 nM | 61.3 nM | 
7 | CCOc1cc(F)ccc1S(=O)(=O)c1ccc(CNC(=O)c2ccc3nccn3c2)cc1 | 31.4 nM | 1.5 nM | 
8 | CCOc1cc(F)ccc1S(=O)(=O)c1ccc(CNC(=O)c2cc3ccncc3o2)cc1 | 7.7 nM | 6.9 nM | 
9 | CCOc1cc(F)ccc1S(=O)(=O)c1ccc(CNC(=O)c2cnc3[nH]ncc3c2)cc1 | 86.3 nM | 67 nM | 
10 | CCOc1cc(F)ccc1S(=O)(=O)c1ccc(CNC(=O)c2cc3ccncc3s2)cc1 | 3.8 nM | 0.9 nM | 
11 | CCOc1ccccc1S(=O)(=O)c1ccc(CNC(=O)c2cnc3[nH]ncc3c2)cc1 | 49.3 nM | 26.9 nM | 
12 | CCOc1ccccc1S(=O)(=O)c1ccc(CNC(=O)c2cnc3nccn3c2)cc1 | 1 nM | 7.1 nM | 
13 | CCc1ccccc1S(=O)(=O)c1ccc(CNC(=O)c2cnc3nccn3c2)cc1 | 2.5 nM | 24.9 nM | 
14 | COc1cccc(S(=O)(=O)c2ccc(CNC(=O)c3cnc4[nH]ncc4c3)cc2)c1F | 8.6 nM | 56.3 nM | 
15 | Cc1cccc(S(=O)(=O)c2ccc(CNC(=O)c3cc4cnccc4[nH]3)cc2)c1F | 75.8 nM | 7 nM | 
16 | Cc1cccc(S(=O)(=O)c2ccc(CNC(=O)c3ccc4nccn4c3)cc2)c1F | 7.5 nM | 3.3 nM | 
17 | Cc1cccc(S(=O)(=O)c2ccc(CNC(=O)c3cnc4[nH]ncc4c3)cc2)c1F | 19.7 nM | 23.9 nM | 
18 | Cc1cccc(S(=O)(=O)c2ccc(CNC(=O)c3cc4ccncc4s3)cc2)c1F | 10.7 nM | 3.3 nM | 
19 | COc1ccc(S(=O)(=O)c2ccc(CNC(=O)c3cnc4[nH]ncc4c3)cc2)c(F)c1 | 120 nM | 207 nM | 

Row | Structure (SMILES) | IC50 (NAMPT) | IC50 (A2780 cells; Homo sapiens, A2780, 72 h) | IC50 (A2780 cells)
20 | Cc1ccc(S(=O)(=O)c2ccc(CNC(=O)c3cnc4nccn4c3)cc2)c(F)c1 | 6.3 nM | 61.4 nM | 
21 | Cc1ccc(S(=O)(=O)c2ccc(CNC(=O)c3cc4ccncc4o3)cc2)c(F)c1 | 12.3 nM | 25.3 nM | 
22 | COc1ccc(F)c(S(=O)(=O)c2ccc(CNC(=O)c3cnc4nccn4c3)cc2)c1 | 10.4 nM | 62.9 nM | 
23 | COc1ccc(F)c(S(=O)(=O)c2ccc(CNC(=O)c3ccc4nccn4c3)cc2)c1 | 4.7 nM | 12.8 nM | 
24 | COc1ccc(F)c(S(=O)(=O)c2ccc(CNC(=O)c3cc4cnccc4[nH]3)cc2)c1 | 77.8 nM | 14.4 nM | 
25 | COc1ccc(F)c(S(=O)(=O)c2ccc(CNC(=O)c3cc4ccncc4s3)cc2)c1 | 2.3 nM | 12.8 nM | 
26 | COc1ccc(F)c(S(=O)(=O)c2ccc(CNC(=O)c3cc4ccncc4o3)cc2)c1 | 26.8 nM | 63.7 nM | 
27 | Cc1ccc(F)c(S(=O)(=O)c2ccc(CNC(=O)c3cnc4nccn4c3)cc2)c1 | 6.8 nM | 27.5 nM | 
28 | Cc1ccc(F)c(S(=O)(=O)c2ccc(CNC(=O)c3cnc4[nH]ncc4c3)cc2)c1 | 24.1 nM |  | 71.6 nM
29 | Cc1ccc(F)c(S(=O)(=O)c2ccc(CNC(=O)c3cc4ccncc4o3)cc2)c1 | 5.9 nM | 13.4 nM | 
30 | CCCOc1cccc(F)c1S(=O)(=O)c1ccc(CNC(=O)c2cc3ccncc3o2)cc1 | 13.3 nM | 14.2 nM | 
31 | CCCOc1cccc(F)c1S(=O)(=O)c1ccc(CNC(=O)c2ccc3nccn3c2)cc1 | 91.4 nM | 1 nM | 
32 | CCCOc1cccc(F)c1S(=O)(=O)c1ccc(CNC(=O)c2cc3ccncc3s2)cc1 | 11.5 nM | 29.3 nM | 
33 | CS(=O)(=O)c1ccccc1S(=O)(=O)c1ccc(CNC(=O)c2cc3ccncc3o2)cc1 | 54.2 nM | 100 to 1000 nM | 
34 | CS(=O)(=O)c1ccccc1S(=O)(=O)c1ccc(CNC(=O)c2cnc3[nH]ncc3c2)cc1 | 202 nM | 100 to 1000 nM | 
35 | COc1ccc(C)cc1S(=O)(=O)c1ccc(CNC(=O)c2cc3ccncc3o2)cc1 | 13.3 nM | 6.8 nM | 
36 | COc1ccc(C)cc1S(=O)(=O)c1ccc(CNC(=O)c2cnc3nccn3c2)cc1 | 3.9 nM | 7.2 nM | 
37 | CCCOc1ccc(S(=O)(=O)c2ccc(CNC(=O)c3ccc4nccn4c3)cc2)c(C)c1 | 9.2 nM | 13.3 nM | 
38 | CCCOc1ccc(S(=O)(=O)c2ccc(CNC(=O)c3cnc4[nH]ncc4c3)cc2)c(C)c1 | 64.4 nM | 79.4 nM | 

Row | Structure (SMILES) | IC50 (NAMPT) | IC50 (A2780 cells; Homo sapiens, A2780, 72 h) | IC50 (A2780 cells)
39 | CCCOc1ccc(S(=O)(=O)c2ccc(CNC(=O)c3cc4ccncc4o3)cc2)c(C)c1 | 22.5 nM | 59.6 nM | 
40 | CCCOc1ccc(S(=O)(=O)c2ccc(CNC(=O)c3cc4cnccc4[nH]3)cc2)c(C)c1 | 30.5 nM | 22.1 nM | 
41 | CCCOc1ccc(S(=O)(=O)c2ccc(CNC(=O)c3cnc4nccn4c3)cc2)c(C)c1 | 10 nM | 51.8 nM | 
42 | O=C(NCc1ccc(S(=O)(=O)c2ccccc2Oc2ccccc2)cc1)c1cc2ccncc2o1 | 20.4 nM | 1000 to 10000 nM | 
43 | O=C(NCc1ccc(S(=O)(=O)c2ccccc2Oc2ccccc2)cc1)c1cnc2nccn2c1 | 8.5 nM | 100 to 1000 nM | 
44 | O=C(NCc1ccc(S(=O)(=O)c2cccc(F)c2F)cc1)c1cnc2[nH]ncc2c1 | 82 nM | 279 nM | 
45 | COc1cc(C)cc(S(=O)(=O)c2ccc(CNC(=O)c3cnc4nccn4c3)cc2)c1OC | 4.2 nM | 15.6 nM | 
46 | COc1cc(C)cc(S(=O)(=O)c2ccc(CNC(=O)c3cnc4[nH]ncc4c3)cc2)c1OC | 146 nM | 58.6 nM | 
47 | COc1cc(C)cc(S(=O)(=O)c2ccc(CNC(=O)c3cc4ccncc4o3)cc2)c1OC | 15.2 nM | 7 nM | 
48 | COc1cccc(S(=O)(=O)c2ccc(CNC(=O)c3cc4cnccc4[nH]3)cc2)c1OC | 11.7 nM | 4.9 nM | 
49 | COc1cccc(S(=O)(=O)c2ccc(CNC(=O)c3cc4ccncc4o3)cc2)c1OC | 9.3 nM | 13.6 nM | 
50 | COc1ccc(OC)c(S(=O)(=O)c2ccc(CNC(=O)c3cc4ccncc4o3)cc2)c1OC | 39.9 nM | 66.7 nM | 
51 | O=C(NCc1ccc(S(=O)(=O)c2ccc(Cl)c(Cl)c2)cc1)c1cc2ccncc2o1 | 10.4 nM | 4.8 nM | 
52 | O=C(NCc1ccc(S(=O)(=O)c2ccc(Cl)c(Cl)c2)cc1)c1cnc2nccn2c1 | 1.5 nM | 1.7 nM | 
53 | O=C(NCc1ccc(S(=O)(=O)c2ccc(F)c(F)c2)cc1)c1cc2ccncc2o1 | 16.8 nM | 13 nM | 
54 | O=C(NCc1ccc(S(=O)(=O)c2ccc(F)c(F)c2)cc1)c1cnc2nccn2c1 | 4.1 nM | 36.3 nM | 
55 | O=C(NCc1ccc(S(=O)(=O)c2ccc(F)c(F)c2)cc1)c1cnc2[nH]ncc2c1 | 54.2 nM | 28.9 nM | 
56 | COc1ccc(S(=O)(=O)c2ccc(CNC(=O)c3cnc4[nH]ncc4c3)cc2)cc1OC | 20.6 nM | 5.6 nM | 
